Our source for the IC50 values is US9056858B2, “Indazole and pyrazolopyridine compounds as CCR1 receptor antagonists” (Boehringer Ingelheim International GmbH, priority 2009, dated 2015).

The structures appear in SMILES notation. pIC50: −log10 of the molar value.

The term pIC50 denotes the IC50 on a negative log10 scale, so that one unit is a factor of ten.

The experiment has as its target T1, CCR1 (Homo sapiens, UniProt P32246).
T1 construct: host or cells: Non-adherent cells
T1 sequence (P32246 1-355): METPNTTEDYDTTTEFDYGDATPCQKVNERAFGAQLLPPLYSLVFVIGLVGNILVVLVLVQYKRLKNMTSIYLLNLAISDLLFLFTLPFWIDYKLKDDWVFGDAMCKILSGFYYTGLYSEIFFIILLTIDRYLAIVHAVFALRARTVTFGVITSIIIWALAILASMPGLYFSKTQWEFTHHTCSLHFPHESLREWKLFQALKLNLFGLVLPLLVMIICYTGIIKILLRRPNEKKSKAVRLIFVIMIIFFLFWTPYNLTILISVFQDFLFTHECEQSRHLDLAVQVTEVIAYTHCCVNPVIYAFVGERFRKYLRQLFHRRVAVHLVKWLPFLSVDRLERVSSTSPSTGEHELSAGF
As to the kind of experiment: functional cellular assay measuring calcium flux in CCR1 transfected cells (block of CCR1/MIP-1α interaction). The following applies: cells stably expressing recombinant CCR1 and G-alpha-16, MIP-1alpha added at EC80. Type of experiment: cell-based. As for the experimental part: Compounds are assessed for the ability to block the interaction of CCR1 and MIP-1α in a functional cellular assay measuring calcium flux in CCR1 transfected cells.
Non-adherent cells purchased from Chemicon Corporation (HTS005C), stably expressing recombinant CCR1 and G-alpha-16 are grown in RPMI 1640 medium (Mediatech 10-080-CM) supplemented with 10% FBS, 0.4 mg/mL Geneticin and penicillin/streptomycin. On the day of the assay, the cells are loaded with Calcium 4 dye (Molecular Devices R7448) with Probenecid (Invitrogen P346400) at 8E5 cells/mL for 1 hour at room temperature. After 1 hour, they are seeded in a 384-well tissue culture-treated plate at a density of 20,000 cells/well. Appropriately diluted test compound is added to the well to achieve a top concentration of 3,000 nM (diluted 4-fold with 10 doses total). The final concentration of DMSO is 1%. The buffer is HBSS (Invitrogen 14025) with 20 mM HEPES at pH 7.4. The cells incubate 30 minutes at 37 C and then 30 minutes at room temperature. The plates are transferred to the […] FDSS6000 where MIP-1alpha in 1% BSA is added at the EC80 final concentration. All plates must be read within 4 hours of the start of dye-loading. Wells +/− MIP-1alpha containing diluted DMSO instead of compound serve as the controls. Data are analyzed using Activity Base software.
On the technique in general: Calcium assays in cells follow changes in intracellular calcium, usually with a dye or a luminescent sensor.
As to `CS(=O)(=O)c1cc(C2(NC(=O)c3cccc4c3cnn4-c3ccc(F)cc3)CC2)ccn1` [1-(4-Fluoro-phenyl)-1H-indazole-4-carboxylic acid [1-(2-methanesulfonyl-pyridin-4-yl)-cyclopropyl]-amide], the pIC50 is 8.40.

In the case of `O=C(NC1(c2nncs2)CC1)c1cncc2c1cnn2-c1ccc(F)cc1` [1-(4-Fluoro-phenyl)-1H-pyrazolo[3,4-c]pyridine-4-carboxylic acid (1-1,3,4-thiadiazol-2-yl-cyclopropyl)-amide], the pIC50 is 6.58.

As for `Cc1cccc(C2(NC(=O)c3cncc4c3cnn4-c3ccc(F)cc3)CC2)c1` [1-(4-Fluoro-phenyl)-1H-pyrazolo[3,4-c]pyridine-4-carboxylic acid (1-m-tolyl-cyclopropyl)-amide], the pIC50 is 7.59.

On to `Cc1ccccc1C1(NC(=O)c2cncc3c2cnn3-c2ccc(F)cc2)CC1` [1-(4-Fluoro-phenyl)-1H-pyrazolo[3,4-c]pyridine-4-carboxylic acid (1-o-tolyl-cyclopropyl)-amide], for which the pIC50 is 7.21.

`Cc1ccc(C2(NC(=O)c3cncc4c3cnn4-c3ccc(F)cc3)CC2)cc1` [1-(4-Fluoro-phenyl)-1H-pyrazolo[3,4-c]pyridine-4-carboxylic acid (1-p-tolyl-cyclopropyl)-amide]: the pIC50 was 7.85.

On to `O=C(NC1(c2ccccc2)CC1)c1cncc2c1cnn2-c1ccc(F)cc1` [1-(4-Fluoro-phenyl)-1H-pyrazolo[3,4-c]pyridine-4-carboxylic acid (1-phenyl-cyclopropyl)-amide], for which the pIC50 was 6.96.

`O=C(NC1(c2cccnc2)CC1)c1cncc2c1cnn2-c1ccc(F)cc1` [1-(4-Fluoro-phenyl)-1H-pyrazolo[3,4-c]pyridine-4-carboxylic acid (1-pyridin-3-yl-cyclopropyl)-amide]: the pIC50 was 7.06.

For `O=C(NC1(c2ccncc2)CC1)c1cncc2c1cnn2-c1ccc(F)cc1` [1-(4-Fluoro-phenyl)-1H-pyrazolo[3,4-c]pyridine-4-carboxylic acid (1-pyridin-4-yl-cyclopropyl)-amide], the pIC50 was 7.74.

Take `O=C(NC1(c2ccnc(Br)c2)CCC1)c1cncc2c1cnn2-c1ccc(F)cc1` [1-(4-Fluoro-phenyl)-1H-pyrazolo[3,4-c]pyridine-4-carboxylic acid [1-(2-bromo-pyridin-4-yl)-cyclobutyl]-amide]: the pIC50 is 8.52.

For the molecule `O=C(NC1(c2ccnc(Br)c2)CC1)c1cncc2c1cnn2-c1ccc(F)cc1` [1-(4-Fluoro-phenyl)-1H-pyrazolo[3,4-c]pyridine-4-carboxylic acid [1-(2-bromo-pyridin-4-yl)-cyclopropyl]-amide], the pIC50 was 9.30.

Consider `Cc1nc(C2(NC(=O)c3cncc4c3cnn4-c3ccc(F)cc3)CC2)cs1` [1-(4-Fluoro-phenyl)-1H-pyrazolo[3,4-c]pyridine-4-carboxylic acid [1-(2-methyl-thiazol-4-yl)-cyclopropyl]-amide], for which the pIC50 was 7.00.

Consider `O=C(NC1(c2cccc(Br)c2)CC1)c1cncc2c1cnn2-c1ccc(F)cc1` [1-(4-Fluoro-phenyl)-1H-pyrazolo[3,4-c]pyridine-4-carboxylic acid [1-(3-bromo-phenyl)-cyclopropyl]-amide], for which the pIC50 is 9.00.

In the case of `NC(=O)c1cccc(C2(NC(=O)c3cncc4c3cnn4-c3ccc(F)cc3)CC2)c1` [1-(4-Fluoro-phenyl)-1H-pyrazolo[3,4-c]pyridine-4-carboxylic acid [1-(3-carbamoyl-phenyl)-cyclopropyl]-amide], the pIC50 was 7.40.

Regarding `O=C(NC1(c2cccc(Cl)c2)CC1)c1cncc2c1cnn2-c1ccc(F)cc1` [1-(4-Fluoro-phenyl)-1H-pyrazolo[3,4-c]pyridine-4-carboxylic acid [1-(3-chloro-phenyl)-cyclopropyl]-amide], the pIC50 is 8.52.

Regarding `O=C(NC1(c2nc(C3CC3)no2)CC1)c1cncc2c1cnn2-c1ccc(F)cc1` [1-(4-Fluoro-phenyl)-1H-pyrazolo[3,4-c]pyridine-4-carboxylic acid [1-(3-cyclopropyl-1,2,4-oxadiazol-5-yl)-cyclopropyl]-amide], the pIC50 was 7.96.

For the molecule `O=C(NC1(c2cccc(F)c2)CC1)c1cncc2c1cnn2-c1ccc(F)cc1` [1-(4-Fluoro-phenyl)-1H-pyrazolo[3,4-c]pyridine-4-carboxylic acid [1-(3-fluoro-phenyl)-cyclopropyl]-amide], the pIC50 is 7.89.

Take `CS(=O)(=O)c1cccc(C2(NC(=O)c3cncc4c3cnn4-c3ccc(F)cc3)CC2)c1` [1-(4-Fluoro-phenyl)-1H-pyrazolo[3,4-c]pyridine-4-carboxylic acid [1-(3-methanesulfonyl-phenyl)-cyclopropyl]-amide]: the pIC50 was 9.00.

Turning to `COc1cccc(C2(NC(=O)c3cncc4c3cnn4-c3ccc(F)cc3)CC2)c1` [1-(4-Fluoro-phenyl)-1H-pyrazolo[3,4-c]pyridine-4-carboxylic acid [1-(3-methoxy-phenyl)-cyclopropyl]-amide], the pIC50 was 8.30.

Consider `CNC(=O)c1cccc(C2(NC(=O)c3cncc4c3cnn4-c3ccc(F)cc3)CC2)c1` [1-(4-Fluoro-phenyl)-1H-pyrazolo[3,4-c]pyridine-4-carboxylic acid [1-(3-methylcarbamoyl-phenyl)-cyclopropyl]-amide], for which the pIC50 was 8.70.

As to `NS(=O)(=O)c1cccc(C2(NC(=O)c3cncc4c3cnn4-c3ccc(F)cc3)CC2)c1` [1-(4-Fluoro-phenyl)-1H-pyrazolo[3,4-c]pyridine-4-carboxylic acid [1-(3-sulfamoyl-phenyl)-cyclopropyl]-amide], the pIC50 is 8.52.

For `O=C(NC1(c2cccc(C(F)(F)F)c2)CC1)c1cncc2c1cnn2-c1ccc(F)cc1` [1-(4-Fluoro-phenyl)-1H-pyrazolo[3,4-c]pyridine-4-carboxylic acid [1-(3-trifluoromethyl-phenyl)-cyclopropyl]-amide], the pIC50 is 9.40.

Take `NCc1ccnc(C2(NC(=O)c3cncc4c3cnn4-c3ccc(F)cc3)CC2)c1` [1-(4-Fluoro-phenyl)-1H-pyrazolo[3,4-c]pyridine-4-carboxylic acid [1-(4-aminomethyl-pyridin-2-yl)-cyclopropyl]-amide]: the pIC50 is 6.54.

For `O=C(NC1(c2ccc(Br)cc2)CC1)c1cncc2c1cnn2-c1ccc(F)cc1` [1-(4-Fluoro-phenyl)-1H-pyrazolo[3,4-c]pyridine-4-carboxylic acid [1-(4-bromo-phenyl)-cyclopropyl]-amide], the pIC50 is 8.40.

With `O=C(NC1(c2ccc(Cl)cc2)CC1)c1cncc2c1cnn2-c1ccc(F)cc1` [1-(4-Fluoro-phenyl)-1H-pyrazolo[3,4-c]pyridine-4-carboxylic acid [1-(4-chloro-phenyl)-cyclopropyl]-amide], the pIC50 is 8.00.

With `O=C(NC1(c2cc(Cl)ccn2)CC1)c1cncc2c1cnn2-c1ccc(F)cc1` [1-(4-Fluoro-phenyl)-1H-pyrazolo[3,4-c]pyridine-4-carboxylic acid [1-(4-chloro-pyridin-2-yl)-cyclopropyl]-amide], the pIC50 is 7.77.

With `O=C(NC1(c2ccc(F)cc2)CCC1)c1cncc2c1cnn2-c1ccc(F)cc1` [1-(4-Fluoro-phenyl)-1H-pyrazolo[3,4-c]pyridine-4-carboxylic acid [1-(4-fluoro-phenyl)-cyclobutyl]-amide], the pIC50 is 7.21.
